In the experiment the target is T1, tyrosinase from mushroom.
T1 construct: gene PPO1
In words: dopachrome absorbance, […] nm, 96-well plate. The format is biochemical. To be noted: L-DOPA substrate (2.0 mM stock), phosphate buffer pH 6.8, room temperature.

≈ marks a conversion by molar mass, not a printed value.

In turn, `O=C(O)CCCCCCCC(=O)O` [azelaic acid] gave an IC50 of 6455 ± 249 µg/mL (≈ 34.3 mM).
